Measured values from US9834548B2, “Pyridazine compounds as JAK inhibitors” (Portola Pharmaceuticals, Inc., priority 2014, dated 2017).
Where two headings read alike, the source gives them in different places.

Tests used:
Type in all cases: biochemical
JAK3 = JAK3 (Homo sapiens (Human), UniProt P52333); assay: Purified kinase assay (Z'-LYTE), JAK3
Experimental: (§1) JAK and TYK2 tyrosine phosphorylation activity is measured using the Z′-LYTE™ Technology developed by Invitrogen Corporation (Carlsbad, Calif.). For JAK1, JAK2 and JAK3 the Z′-LYTE™ Kinase Assay Kit-Tyr6 Peptide (part number PV4122) was used. For TYK2 the Z′-LYTE™ Kinase Assay Kit-Tyr6 Peptide (part number PV3192) was used. The Z′-LYTE™ biochemical assay employs a fluorescence resonance energy transfer (FRET) coupled-enzyme format and is based on the differential sensitivity of phosphorylated and non-phosphorylated peptides to proteolytic cleavage. The assay uses a synthetic peptide substrate that is labeled with a donor fluorophore (coumarin) and an acceptor fluorophore (fluorescein) that make up a FRET pair. In the primary reaction (the Kinase Reaction), the kinase transfers the γ-phosphate of ATP to a single tyrosine residue on the substrate, while the presence of a kinase inhibitor in the primary reaction suppresses phosphorylation. In the secondary reaction (the Development Reaction), a site-specific protease (the Development Reagent) is added. The development buffer quenches the Kinase Reaction, while the protease recognizes and cleaves non-phosphorylated Z′-LYTE™ peptide substrate. Cleavage disrupts FRET between the donor and acceptor fluorophores on the non-phosphorylated substrate, while uncleaved, phosphorylated substrate maintains FRET.
(§2) To test the ability of candidate molecules to inhibit JAK tyrosine phosphorylation activity, molecules are reconstituted in 100% DMSO and serially diluted 1:10 in polypropylene v-bottom microtiter plates. The candidate molecules are then diluted 1:25 into kinase buffer and 2.5 μl transferred into duplicate wells of a 384 well low volume black microtiter assay plate (Corning, USA). The final DMSO concentration in the assay is 1%. The kinase reaction contains 2.5 μl of a candidate molecule, 5 μl of catalytic domain recombinant Kinase enzyme+Tyr peptide substrate (Invitrogen, CA) and ATP (Invitrogen, CA). The kinase reaction is allowed to proceed for 1 hour at room temperature. The protease reaction is initiated by the addition of Development Reagent (Invitrogen, CA). After 1 hour incubation at room temperature the fluorescence is measured using a FlexStation plate reader (Molecular Devices, Sunnyvale, Calif.). The reader settings used are as follows: Fluorescence mode, endpoint, top read, excitation 400 nm, emission 445 nm and 520 nm, Auto Cutoff 435 nm and 515 nm, PMT sensitivity high, 6 reads per well Inhibition of JAK activity is calculated as the percent phosphorylation of substrate in the presence of inhibitor compared to the percent phosphorylation of substrate in the absence of inhibitor. IC50's were derived using Xlfit 4.3 (IDBS, UK), 4 parameter logistic model 205: Y=(A+((B−A)/(1+((C/x)^D)))).

JAK2 = JAK2 (Homo sapiens (Human), UniProt O60674); assay: Purified kinase assay (Z'-LYTE), JAK2
Sequence of JAK2 (O60674 849-1124): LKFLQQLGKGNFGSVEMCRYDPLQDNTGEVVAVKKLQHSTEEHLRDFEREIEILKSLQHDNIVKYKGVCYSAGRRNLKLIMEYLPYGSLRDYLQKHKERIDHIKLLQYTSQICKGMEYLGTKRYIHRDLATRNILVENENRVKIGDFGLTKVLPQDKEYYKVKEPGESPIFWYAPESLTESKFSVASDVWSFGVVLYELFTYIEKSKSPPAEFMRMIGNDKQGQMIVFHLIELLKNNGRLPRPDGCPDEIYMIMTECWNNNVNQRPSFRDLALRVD
Experimental: as §1, §2

TYK2 = TYK2 (Homo sapiens (Human), UniProt P29597); assay: Purified kinase assay (Z'-LYTE), TYK2
Sequence of TYK2 (P29597 897-1176): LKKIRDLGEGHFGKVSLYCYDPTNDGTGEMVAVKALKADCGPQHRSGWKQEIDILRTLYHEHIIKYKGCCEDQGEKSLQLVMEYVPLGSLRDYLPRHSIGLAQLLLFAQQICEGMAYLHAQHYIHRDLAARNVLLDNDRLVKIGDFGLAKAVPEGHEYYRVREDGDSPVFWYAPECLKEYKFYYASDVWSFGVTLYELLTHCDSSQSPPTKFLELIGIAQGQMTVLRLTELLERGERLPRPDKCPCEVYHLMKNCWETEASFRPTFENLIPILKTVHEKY
Experimental: as §1, §2

JAK1 = JAK1 (Homo sapiens (Human), UniProt P23458); assay: Purified kinase assay (Z'-LYTE), JAK1
Sequence of JAK1 (P23458 875-1153): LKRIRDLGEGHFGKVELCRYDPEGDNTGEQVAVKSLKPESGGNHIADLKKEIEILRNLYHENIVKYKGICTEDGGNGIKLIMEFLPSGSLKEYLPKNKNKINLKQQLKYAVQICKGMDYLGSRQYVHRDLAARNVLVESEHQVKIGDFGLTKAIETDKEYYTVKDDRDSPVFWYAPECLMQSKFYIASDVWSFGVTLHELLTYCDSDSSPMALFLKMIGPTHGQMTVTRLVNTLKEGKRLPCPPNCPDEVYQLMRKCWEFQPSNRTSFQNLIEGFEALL
Experimental: as §1, §2

Sequence of JAK3 (P52333 822-1111): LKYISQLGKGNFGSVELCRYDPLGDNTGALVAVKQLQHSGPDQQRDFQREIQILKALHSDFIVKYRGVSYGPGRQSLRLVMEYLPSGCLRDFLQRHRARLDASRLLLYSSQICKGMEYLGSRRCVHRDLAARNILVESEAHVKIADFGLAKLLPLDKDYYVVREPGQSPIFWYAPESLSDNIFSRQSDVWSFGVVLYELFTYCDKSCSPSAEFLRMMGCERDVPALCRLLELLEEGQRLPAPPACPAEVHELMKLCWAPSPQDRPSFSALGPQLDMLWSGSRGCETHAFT

SMILES	IC50 (JAK3; Table 1, read-out: JAK3 IC50)	IC50 (JAK2; Table 1, read-out: JAK2 IC50)	IC50 (TYK2; Table 1, read-out: Tyk2 IC50)	IC50 (JAK1; Table 1, read-out: JAK1 IC50)	IC50 (JAK3; Table 2, read-out: JAK3)	IC50 (JAK2; Table 2, read-out: JAK2)	IC50 (TYK2; Table 2, read-out: TYK2)	IC50 (JAK1; Table 2, read-out: JAK1)
CC(=O)N1CCN(c2ccc(Nc3cc(NCc4ccccc4)c(C(N)=O)nn3)cc2)CC1 [Compound 5, 6-((4-(4-acetylpiperazin-1-yl)phenyl)amino)-4-(benzylamino)-pyridazine-3-carboxamide]	10 to 100 nM	100 to 1000 nM	100 to 1000 nM	> 1000 nM				
CC(=O)N1CCN(c2ccc(Nc3cc(NCc4ccccc4F)c(C(N)=O)nn3)cc2)CC1 [Compound 18, 6-((4-(4-acetylpiperazin-1-yl)phenyl)amino)-4-((2-fluorobenzyl)amino)pyridazine-3-carboxamide]	1 to 10 nM	100 to 1000 nM	100 to 1000 nM	100 to 1000 nM	1 to 10 nM	100 to 1000 nM	100 to 1000 nM	> 1000 nM
CC(=O)N1CCN(c2ccc(Nc3cc(NCc4cccc(F)c4)c(C(N)=O)nn3)cc2)CC1 [Compound 19]	1 to 10 nM	100 to 1000 nM	100 to 1000 nM	> 1000 nM				
CC(=O)N1CCN(c2ccc(Nc3cc(NCc4cccs4)c(C(N)=O)nn3)cc2)CC1 [Compound 21]	10 to 100 nM	100 to 1000 nM	100 to 1000 nM	> 1000 nM				
CC(=O)N1CCN(c2ccc(Nc3cc(NCc4ccccc4C)c(C(N)=O)nn3)cc2)CC1 [Compound 23]	1 to 10 nM	100 to 1000 nM	100 to 1000 nM	100 to 1000 nM				
CCC(=O)N1CCN(c2ccc(Nc3cc(NCc4ccccc4F)c(C(N)=O)nn3)cc2)CC1 [Compound 29]	10 to 100 nM	100 to 1000 nM	100 to 1000 nM	> 1000 nM				
Cc1cc(Nc2cc(NCc3cccc(F)c3F)c(C(N)=O)nn2)ccc1C(=O)N1CCCC1 [Compound 42]	1 to 10 nM	10 to 100 nM	100 to 1000 nM	100 to 1000 nM				
NC(=O)c1nnc(Nc2cccc(OCCN3CCCC3)c2)cc1NCc1cccc(F)c1 [Compound 56]	10 to 100 nM	100 to 1000 nM	> 1000 nM	> 1000 nM				
CC(=O)N1CCN(c2ccc(Nc3cc(NC4(c5ccccc5)CC4)c(C(N)=O)nn3)cc2)CC1 [Compound 57]	10 to 100 nM	> 1000 nM	> 1000 nM	> 1000 nM				
COc1cccc(CNc2cc(Nc3ccc(N4CCN(C(C)=O)CC4)cc3)nnc2C(N)=O)c1 [Compound 58]	10 to 100 nM	100 to 1000 nM	> 1000 nM	> 1000 nM				
CN(C)C(=O)c1ccc(Nc2cc(NCc3cccc(F)c3)c(C(N)=O)nn2)cc1 [Compound 59]	10 to 100 nM	100 to 1000 nM	> 1000 nM	> 1000 nM				
Cc1cc(Nc2cc(NCc3cccc(F)c3)c(C(N)=O)nn2)ccc1C(=O)N(C)C [Compound 60]	10 to 100 nM	100 to 1000 nM	> 1000 nM	> 1000 nM				
Cc1cc(Nc2cc(NCc3cccc(F)c3)c(C(N)=O)nn2)ccc1C(=O)N1CCCC1 [Compound 61]	1 to 10 nM	10 to 100 nM	100 to 1000 nM	> 1000 nM				
CC(=O)Nc1cccc(Nc2cc(NCc3cccc(F)c3)c(C(N)=O)nn2)c1 [Compound 65]	10 to 100 nM	100 to 1000 nM	100 to 1000 nM	> 1000 nM				
Cn1cc(Nc2cc(NCc3cccc(F)c3)c(C(N)=O)nn2)cn1 [Compound 66]	10 to 100 nM	100 to 1000 nM	> 1000 nM	> 1000 nM				
CS(=O)(=O)Cc1ccc(Nc2cc(NCc3cccc(F)c3F)c(C(N)=O)nn2)cc1 [Compound 89]	1 to 10 nM	100 to 1000 nM	100 to 1000 nM	100 to 1000 nM				
NC(=O)c1nnc(Nc2ccc(N3CCNCC3)cc2)cc1NCc1cccc2ccsc12 [Compound 99]	1 to 10 nM	10 to 100 nM	100 to 1000 nM	100 to 1000 nM				
CC(C)n1cc(Nc2cc(NCc3c(F)cccc3F)c(C(N)=O)nn2)cn1 [Compound 113]	1 to 10 nM	10 to 100 nM		100 to 1000 nM				
CC(C)n1cc(Nc2cc(NCc3cccc(F)c3F)c(C(N)=O)nn2)cn1 [Compound 114]	10 to 100 nM	100 to 1000 nM		100 to 1000 nM				
NC(=O)c1nnc(Nc2cnn(C3CCCC3)c2)cc1NCc1cccc2ccsc12 [Compound 115]	10 to 100 nM	10 to 100 nM		> 1000 nM				

Results, then the compound that gave them:

IC50 (JAK3; Table 1, read-out: JAK3 IC50)	IC50 (JAK2; Table 1, read-out: JAK2 IC50)	IC50 (TYK2; Table 1, read-out: Tyk2 IC50)	IC50 (JAK1; Table 1, read-out: JAK1 IC50)	IC50 (JAK3; Table 2, read-out: JAK3)	IC50 (JAK2; Table 2, read-out: JAK2)	IC50 (TYK2; Table 2, read-out: TYK2)	IC50 (JAK1; Table 2, read-out: JAK1)	SMILES
10 to 100 nM	100 to 1000 nM		> 1000 nM					NC(=O)c1nnc(Nc2cnn(C3CCCC3)c2)cc1NCc1cccc(F)c1F [Compound 116]
10 to 100 nM	10 to 100 nM		100 to 1000 nM					NC(=O)c1nnc(Nc2cnn(CC3CC3)c2)cc1NCc1cccc2ccsc12 [Compound 117]
10 to 100 nM	100 to 1000 nM		100 to 1000 nM					NC(=O)c1nnc(Nc2cnn(CC3CC3)c2)cc1NCc1cccc(F)c1F [Compound 118]
10 to 100 nM	100 to 1000 nM		> 1000 nM					NC(=O)c1nnc(Nc2cnn(CC3CC3)c2)cc1NCc1cccc(F)c1 [Compound 119]
10 to 100 nM	100 to 1000 nM		> 1000 nM					CCn1cc(Nc2cc(NCc3cccc(F)c3F)c(C(N)=O)nn2)cn1 [Compound 120]
1 to 10 nM	10 to 100 nM		100 to 1000 nM					NC(=O)c1nnc(Nc2cnn(CC3CCOCC3)c2)cc1NCc1cccc2ccsc12 [Compound 121]
1 to 10 nM	10 to 100 nM		100 to 1000 nM					CCn1cc(Nc2cc(NCc3cccc4ccsc34)c(C(N)=O)nn2)cn1 [Compound 122]
10 to 100 nM	100 to 1000 nM		> 1000 nM					CCn1cc(Nc2cc(NCc3cccc(F)c3)c(C(N)=O)nn2)cn1 [Compound 123]
1 to 10 nM	100 to 1000 nM		> 1000 nM					NC(=O)c1nnc(Nc2cnn(CC3CCOCC3)c2)cc1NCc1cccc(F)c1F [Compound 124]
1 to 10 nM	10 to 100 nM		100 to 1000 nM					CC(=O)N1CCC(Cn2cc(Nc3cc(NCc4cccc5ccsc45)c(C(N)=O)nn3)cn2)CC1 [Compound 125]
1 to 10 nM	100 to 1000 nM		> 1000 nM					CC(=O)N1CCC(Cn2cc(Nc3cc(NCc4cccc(F)c4F)c(C(N)=O)nn3)cn2)CC1 [Compound 126]
10 to 100 nM	100 to 1000 nM		> 1000 nM					CC(=O)N1CCC(Cn2cc(Nc3cc(NCc4cccc(F)c4)c(C(N)=O)nn3)cn2)CC1 [Compound 127]
1 to 10 nM	10 to 100 nM		100 to 1000 nM					CCC(=O)N1CCC(Cn2cc(Nc3cc(NCc4cccc5ccsc45)c(C(N)=O)nn3)cn2)CC1 [Compound 128]
1 to 10 nM	100 to 1000 nM		100 to 1000 nM					CCC(=O)N1CCC(Cn2cc(Nc3cc(NCc4cccc(F)c4F)c(C(N)=O)nn3)cn2)CC1 [Compound 129]
10 to 100 nM	100 to 1000 nM		> 1000 nM					CCC(=O)N1CCC(Cn2cc(Nc3cc(NCc4cccc(F)c4)c(C(N)=O)nn3)cn2)CC1 [Compound 130]
10 to 100 nM	100 to 1000 nM		100 to 1000 nM					CN(C)C(=O)Cn1cc(Nc2cc(NCc3cccc4ccsc34)c(C(N)=O)nn2)cn1 [Compound 131]
10 to 100 nM	> 1000 nM		> 1000 nM					CS(=O)(=O)Cc1ccc(Nc2cc(NCc3cccc(-c4ccncc4)c3)c(C(N)=O)nn2)cc1 [Compound 132]
1 to 10 nM	100 to 1000 nM		> 1000 nM					CN(C)C(=O)N1CCC(Cn2cc(Nc3cc(NCc4cccc(F)c4F)c(C(N)=O)nn3)cn2)CC1 [Compound 133]
